Source: patent US7772216B2, “Protein kinase and phosphatase inhibitors and methods for designing them” (The Research Foundation of State University of New York, priority 2001, dated 2010)
Read-outs that look alike come from different tables or passages of the source. Each block holds one compound with its values, some of them ahead of it.

How the values were obtained:
PC-3 = assay: NIH 60-tumor cell panel, PC-3; assay type: cell-based; conditions: Homo sapiens, NIH prostate cancer cell line, read-out: growth inhibition IC50, PC-3
Excerpt: The initial non-peptide Src inhibitors have also shown very encouraging results in four different series of cell culture assays. 1) In the NIH 60-tumor cell panel assay, broad activity (as one would expect for a Src inhibitor) was seen against the tumor cell lines, including the prostate lines. […] 3) The Src inhibitors were compared to the cancer drugs etoposide, taxol, doxorubicin and cisplatin in ovarian tumors from three different patients and an abdominal carcinoma from another patient. […] 5) Two of the Src inhibitors were also tested for inhibition of ts v-Src stimulated LA25 cell growth. […] 6) Two of the Src inhibitors were also tested for inhibition of normal rat kidney cell growth. The results are shown in FIG. 16D and illustrate that the inhibitors are cytoprotective for normal cells.

LA25 cells = assay: LA25 (ts pp60^v-src transformed NRK) cell growth; assay type: cell-based, rat
Protocol: (§1) Active Src inhibitors can be studied in a set of side-by-side cell-based assays using normal rat kidney (NRK) cells and a temperature-sensitive pp60^v-Src transformant of this cell line (LA25). The LA25 transformant engages in anchorage- and serum-independent growth at the “permissive” temperature of 33° C. due to activation of pp60^v-src but not at the “non-permissive” temperature of 40° C. at which pp60^v-src is not activated (Li et al., 1996). The use of this pair of closely related cell lines for testing the Src inhibitors at both the permissive and non-permissive temperatures allows one to determine if a given Src inhibitor is blocking cell growth due to specific blockade of the Src signaling pathway, by a different mechanism or by a general cytotoxic effect.
(§2) As shown in this graph the growth of the LA25 cells at the permissive temperature of 33° C. is inhibited by ca. 50% at a 25 μM concentration of 43-meta relative to the LA25 cell growth at the non-permissive 40° C. as a control. […] Since the 43-meta solutions were prepared with a low concentration of DMSO for solubilization, a DMSO control was also run at the same concentration.

NRK cells = assay: Normal rat kidney (NRK) cell growth; assay type: cell-based
Protocol: as §1, §2

pp60^c-src [1] = target: T1, pp60^c-src (Homo sapiens, UniProt P12931); assay: Cellular Mimetic Src assay (RR-SRC phosphorylation)
Target sequence in this assay (P12931 whole entry): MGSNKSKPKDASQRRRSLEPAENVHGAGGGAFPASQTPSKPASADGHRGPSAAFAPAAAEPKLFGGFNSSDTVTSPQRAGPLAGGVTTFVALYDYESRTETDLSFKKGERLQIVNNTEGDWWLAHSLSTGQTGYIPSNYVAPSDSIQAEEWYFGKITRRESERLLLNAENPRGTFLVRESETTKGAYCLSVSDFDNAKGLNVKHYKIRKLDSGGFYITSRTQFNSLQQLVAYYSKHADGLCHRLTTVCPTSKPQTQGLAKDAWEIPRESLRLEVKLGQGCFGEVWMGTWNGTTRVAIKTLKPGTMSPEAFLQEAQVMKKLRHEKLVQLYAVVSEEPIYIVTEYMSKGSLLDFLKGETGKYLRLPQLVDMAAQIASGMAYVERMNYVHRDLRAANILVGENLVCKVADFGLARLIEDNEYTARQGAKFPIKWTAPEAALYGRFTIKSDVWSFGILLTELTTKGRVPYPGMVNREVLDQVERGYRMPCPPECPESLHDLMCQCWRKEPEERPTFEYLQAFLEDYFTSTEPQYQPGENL

pp60^c-src [2] = target: T1, pp60^c-src; conditions: literature value, cited from earlier work
Target sequence in this assay (P12931 whole entry, species assumed): as the sequence (P12931 whole entry) above

PTP-1B = target: T2, PTP-1B (Homo sapiens, UniProt P18031); assay: PTP-1B inhibition; assay type: biochemical; conditions: % inhibition at 10 micromolar compound
T2 sequence (P18031 1-435): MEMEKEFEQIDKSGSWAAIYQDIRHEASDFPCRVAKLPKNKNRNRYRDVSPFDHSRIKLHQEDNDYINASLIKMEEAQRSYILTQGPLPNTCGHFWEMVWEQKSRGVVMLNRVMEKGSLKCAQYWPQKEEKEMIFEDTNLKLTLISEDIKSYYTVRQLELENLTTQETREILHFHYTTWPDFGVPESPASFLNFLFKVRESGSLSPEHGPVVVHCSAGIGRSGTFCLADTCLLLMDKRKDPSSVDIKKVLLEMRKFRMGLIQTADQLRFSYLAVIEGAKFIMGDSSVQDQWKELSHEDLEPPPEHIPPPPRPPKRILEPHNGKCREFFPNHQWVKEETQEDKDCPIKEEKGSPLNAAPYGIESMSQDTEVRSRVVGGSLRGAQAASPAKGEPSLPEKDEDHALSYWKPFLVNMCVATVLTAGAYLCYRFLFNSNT
Excerpt: (§3) Blanks for a particular enzyme indicate that inhibition was not found.

EGFRTK = EGFRTK (Homo sapiens, UniProt P00533); assay: EGFRTK inhibition; assay type: biochemical; conditions: % inhibition at 10 micromolar compound
Excerpt: as §3

p56 lck [3] = target: T3, p56 lck (Homo sapiens, UniProt P06239); assay: p56 lck inhibition; assay type: biochemical; conditions: % inhibition at 10 micromolar compound
Excerpt: as §3

[4] = SCID, mouse, in vivo, ip
p56 lck [5] = target: T3, p56 lck; conditions: analyzed with the tyrosine kinase p56^lck; cited from earlier work
[6] = read-out: % Inhibition of 2 mM RR-src at Inhibitor Concentration (100 μM)

EGFRTK, sequence (P00533 25-1210): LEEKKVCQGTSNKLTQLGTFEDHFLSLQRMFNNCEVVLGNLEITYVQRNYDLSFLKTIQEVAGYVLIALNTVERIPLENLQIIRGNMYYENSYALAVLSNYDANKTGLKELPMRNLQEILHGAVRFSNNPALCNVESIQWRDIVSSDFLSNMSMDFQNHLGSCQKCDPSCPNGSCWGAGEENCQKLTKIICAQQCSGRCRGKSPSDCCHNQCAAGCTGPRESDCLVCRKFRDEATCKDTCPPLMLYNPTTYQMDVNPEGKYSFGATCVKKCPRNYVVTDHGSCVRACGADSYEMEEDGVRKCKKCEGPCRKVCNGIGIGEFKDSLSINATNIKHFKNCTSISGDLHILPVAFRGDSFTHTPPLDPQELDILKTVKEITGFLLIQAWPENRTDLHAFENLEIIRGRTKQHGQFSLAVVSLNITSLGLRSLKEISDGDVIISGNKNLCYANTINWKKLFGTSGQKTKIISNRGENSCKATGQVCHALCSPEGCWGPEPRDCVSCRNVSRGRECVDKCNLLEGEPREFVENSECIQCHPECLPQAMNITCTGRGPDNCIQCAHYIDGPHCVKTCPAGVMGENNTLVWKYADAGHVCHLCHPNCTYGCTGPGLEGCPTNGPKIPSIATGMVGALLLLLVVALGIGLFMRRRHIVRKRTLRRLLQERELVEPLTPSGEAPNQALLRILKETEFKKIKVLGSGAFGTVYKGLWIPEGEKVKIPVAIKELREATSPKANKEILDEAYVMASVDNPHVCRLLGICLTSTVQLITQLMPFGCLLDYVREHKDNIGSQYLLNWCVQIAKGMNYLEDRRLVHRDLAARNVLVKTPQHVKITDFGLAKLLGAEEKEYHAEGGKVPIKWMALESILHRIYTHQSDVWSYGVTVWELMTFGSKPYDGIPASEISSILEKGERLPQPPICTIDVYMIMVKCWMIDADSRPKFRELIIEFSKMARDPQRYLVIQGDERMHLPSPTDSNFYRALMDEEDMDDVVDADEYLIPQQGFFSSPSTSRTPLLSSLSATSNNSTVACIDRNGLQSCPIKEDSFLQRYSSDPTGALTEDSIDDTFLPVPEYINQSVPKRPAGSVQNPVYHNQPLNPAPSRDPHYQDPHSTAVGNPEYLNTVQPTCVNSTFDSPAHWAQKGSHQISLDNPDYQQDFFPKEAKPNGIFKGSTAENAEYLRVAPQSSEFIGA
T3 sequence (P06239 whole entry, species assumed): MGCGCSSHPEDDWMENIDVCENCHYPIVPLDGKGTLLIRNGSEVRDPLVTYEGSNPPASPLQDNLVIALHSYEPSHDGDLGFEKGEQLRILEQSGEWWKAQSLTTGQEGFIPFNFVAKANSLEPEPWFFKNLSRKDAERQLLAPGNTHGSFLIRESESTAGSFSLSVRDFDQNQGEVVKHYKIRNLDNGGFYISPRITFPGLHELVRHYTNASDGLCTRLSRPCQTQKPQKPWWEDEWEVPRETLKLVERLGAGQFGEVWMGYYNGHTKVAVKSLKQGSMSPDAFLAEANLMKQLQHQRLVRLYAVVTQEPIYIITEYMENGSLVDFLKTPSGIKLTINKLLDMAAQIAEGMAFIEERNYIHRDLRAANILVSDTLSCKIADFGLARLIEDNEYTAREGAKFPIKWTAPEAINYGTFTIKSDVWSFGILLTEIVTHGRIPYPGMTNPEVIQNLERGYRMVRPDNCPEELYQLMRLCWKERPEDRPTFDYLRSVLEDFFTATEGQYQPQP

- % Inhibition at 100 μM (std. dev.) (pp60^c-src [1]; Table IX, hydroxynaphthalene derivatives and published inhibitors): 37 (+/−5) %
Structure (SMILES): CCOc1cc(/C=C(\C#N)C(N)=O)cc(CSc2ccccc2)c1O [ST-638, reference compound]
- IC50 (pp60^c-src [2]; Table IX, read-out: IC50 (μM), Lit): 18 µM

- p56 LcK @ 10 μm (p56 lck [3]): 11%
Structure (SMILES): O=C(Nc1cc(O)cc(O)c1)c1cc2cc(F)ccc2[nH]1 [Compound 1r]

- EGFRTK @ 10 μm (EGFRTK): 26%
- melting point: 239 to 241 °C
Structure (SMILES): O=C(NCc1cccc(F)c1)c1cc2cc(F)ccc2[nH]1 [Compound 1z]

- p56 LcK @ 10 μm (p56 lck [3]): 12%
Structure (SMILES): COc1cc(OC)c(CNC(=O)c2cc3cc(F)ccc3[nH]2)c(OC)c1 [Compound 1rr]

- p56 LcK @ 10 μm (p56 lck [3]): 12%
Structure (SMILES): O=C(Nc1ccccc1O)c1cc2cc(F)ccc2[nH]1 [Compound 1n]

- PTP-1B @ 10 μm (PTP-1B): 12%
Structure (SMILES): O=C(NCc1ccc(Cl)cc1Cl)c1cc2cc(F)ccc2[nH]1 [Compound 1ss]

More lines, now with the values behind:

Structure (SMILES): O=C(Nc1cccc(O)c1)c1cc2ccc(O)cc2cc1O [Compound 43-meta]
- IC50 (PC-3): 19 µM
- inhibition of v-Src induced LA25 cell growth (LA25 cells): specifically blocked the v-Src induced cell growth
- inhibition at 25 µM (LA25 cells; Rattus norvegicus, NRK, 25 μM, permissive 33° C. relative to non-permissive 40° C.): ~50%
- IC50 (LA25 cells; Rattus norvegicus, NRK, read-out: IC50 for blocking pp60^v-src stimulated cell proliferation): ~25 µM
- inhibition of normal rat kidney (parent non-transformed) cell growth (NRK cells): without inhibiting the normal growth of the parent non-transformed cells
- cell toxicity (basal growth of NRK and LA25 cells) (NRK cells; concentration increased up to 400 μM): lack of cell toxicity
- IC50 (pp60^c-src [1]): 18 µM
- Ki (pp60^c-src [1]; K1, Table V): 10 µM
- inhibition at 100 µM (pp60^c-src [1]; [6]): 89%

Structure (SMILES): CCOc1cc(/C=C(\C#N)C(N)=O)cc(CSc2ccccc2)c1O [drawing 65, ST 638, reference compound]
- inhibition at 100 µM (pp60^c-src [1]; [6]): 37%
- IC50 (pp60^c-src [2]; Table V, read-out: Lit. IC50): 18 µM

Structure (SMILES): COc1ccc(NC(=O)c2cc3cc(F)ccc3[nH]2)cc1CO [Compound 1cccc]
- PTP-1B @ 10 μm (PTP-1B): 20%
- EGFRTK @ 10 μm (EGFRTK): 19%

Structure (SMILES): O=C(NCc1cccc(O)c1)c1cc2cc(F)ccc2[nH]1 [Compound 1a]
- toxicity in mice (weight loss) [4]: less toxic in mice than compound 2k from Example 4

Structure (SMILES): Cc1cc(O)c2c(c1)C(=O)c1cc(O)cc(O)c1C2=O [Emodin, reference compound]
- inhibition at 100 µM (pp60^c-src [1]; read-out: % Inhibition at 100 μM (std. dev.)): 22%
- mode of inhibition with respect to ATP (p56 lck [5]): ATP-competitive

Structure (SMILES): O=C(NCc1ccc(CO)cc1)c1cc2cc(F)ccc2[nH]1 [Compound 1oooo]
- EGFRTK @ 10 μm (EGFRTK): 33%
- p56 LcK @ 10 μm (p56 lck [3]): 10%

Structure (SMILES): O=C(Nc1cccc(O)c1)c1cc2cccc(O)c2cc1O [Compound 45]
- IC50 (PC-3): 15 µM
- inhibition of v-Src induced LA25 cell growth (LA25 cells): specifically blocked the v-Src induced cell growth
- inhibition of normal rat kidney (parent non-transformed) cell growth (NRK cells): without inhibiting the normal growth of the parent non-transformed cells
- IC50 (pp60^c-src [1]): 170 µM
- mode of inhibition with respect to ATP (pp60^c-src [1]; increasing ATP concentration up to 1 mM): 45 NON-ATP
- inhibition at 100 µM (pp60^c-src [1]; [6]): 51%
